We go through 32 compounds from patent publication US20120046329A1, “MODULATORS OF NOD1 AND NOD2 SIGNALING, METHODS OF IDENTIFYING MODULATORS OF NOD1 AND NOD2 SIGNALING, AND USES THEREOF” (Sanford-Burnham Medical Research Institute, priority 2010, published 2012).

Broadly, the IC50 is the concentration that gives 50% inhibition. In general, inhibition refers to the change of the read-out against control, counted positive when it falls.

Experiment [1] concerns TNF-α induced NF-κB. The experiment can be described thus: TNF-α-induced NF-κB luciferase reporter counterscreen, HEK293T. Format: cell-based, human. To be noted: Homo sapiens, HEK-293T.
Experiment [2] addresses NOD2 (Homo sapiens, UniProt Q9HC29). The experiment can be described thus: NOD2 NF-κB luciferase reporter assay, HEK293T cells over-expressing NOD2. The class given is cell-based. The arrangement: expressed in transfected cells; host or cells: HEK293T NF-κB-luciferase cells, lentiviral transduction, sorted by EGFP.
For experiment [3], the target named is T1, NOD1 (Homo sapiens, UniProt Q9Y239).
T1 sequence (Q9Y239 1-953): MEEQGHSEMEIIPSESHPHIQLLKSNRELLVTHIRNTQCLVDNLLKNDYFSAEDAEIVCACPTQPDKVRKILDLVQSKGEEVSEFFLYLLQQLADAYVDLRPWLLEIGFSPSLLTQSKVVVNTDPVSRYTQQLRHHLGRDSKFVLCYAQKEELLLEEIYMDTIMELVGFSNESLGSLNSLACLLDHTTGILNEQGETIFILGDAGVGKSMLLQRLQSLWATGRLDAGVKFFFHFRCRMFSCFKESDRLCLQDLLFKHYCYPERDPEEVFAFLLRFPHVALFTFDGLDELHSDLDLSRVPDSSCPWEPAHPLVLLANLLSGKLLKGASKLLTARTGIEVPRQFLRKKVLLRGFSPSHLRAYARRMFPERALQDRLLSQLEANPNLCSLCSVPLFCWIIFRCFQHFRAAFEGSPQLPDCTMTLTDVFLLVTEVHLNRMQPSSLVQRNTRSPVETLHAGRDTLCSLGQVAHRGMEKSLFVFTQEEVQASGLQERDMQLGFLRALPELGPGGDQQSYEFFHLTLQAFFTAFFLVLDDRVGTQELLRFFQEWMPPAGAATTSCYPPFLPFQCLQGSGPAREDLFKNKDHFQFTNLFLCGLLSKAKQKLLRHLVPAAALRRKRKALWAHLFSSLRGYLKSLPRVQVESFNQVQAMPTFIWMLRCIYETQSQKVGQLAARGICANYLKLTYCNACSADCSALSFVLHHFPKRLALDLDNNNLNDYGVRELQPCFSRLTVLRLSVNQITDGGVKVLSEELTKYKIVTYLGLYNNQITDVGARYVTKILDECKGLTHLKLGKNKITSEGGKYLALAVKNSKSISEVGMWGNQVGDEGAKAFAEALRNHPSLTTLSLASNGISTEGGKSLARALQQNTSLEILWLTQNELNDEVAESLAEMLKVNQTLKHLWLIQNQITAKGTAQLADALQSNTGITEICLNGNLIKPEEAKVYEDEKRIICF
The experiment can be described thus: NOD1 NF-κB luciferase reporter assay, γ-tri-DAP-stimulated HEK293T cells. To be noted: for Effect on NOD-driven NF-κB reporter gene activity: data not shown.

The mark [4] stands for this setting: TNF-α-stimulated NF-κB luciferase, HEK293T, read-out: TNF-α IC50.

Like-named read-outs stand apart in the source and are kept apart here.

Chain of NOD2 (Q9HC29 whole entry): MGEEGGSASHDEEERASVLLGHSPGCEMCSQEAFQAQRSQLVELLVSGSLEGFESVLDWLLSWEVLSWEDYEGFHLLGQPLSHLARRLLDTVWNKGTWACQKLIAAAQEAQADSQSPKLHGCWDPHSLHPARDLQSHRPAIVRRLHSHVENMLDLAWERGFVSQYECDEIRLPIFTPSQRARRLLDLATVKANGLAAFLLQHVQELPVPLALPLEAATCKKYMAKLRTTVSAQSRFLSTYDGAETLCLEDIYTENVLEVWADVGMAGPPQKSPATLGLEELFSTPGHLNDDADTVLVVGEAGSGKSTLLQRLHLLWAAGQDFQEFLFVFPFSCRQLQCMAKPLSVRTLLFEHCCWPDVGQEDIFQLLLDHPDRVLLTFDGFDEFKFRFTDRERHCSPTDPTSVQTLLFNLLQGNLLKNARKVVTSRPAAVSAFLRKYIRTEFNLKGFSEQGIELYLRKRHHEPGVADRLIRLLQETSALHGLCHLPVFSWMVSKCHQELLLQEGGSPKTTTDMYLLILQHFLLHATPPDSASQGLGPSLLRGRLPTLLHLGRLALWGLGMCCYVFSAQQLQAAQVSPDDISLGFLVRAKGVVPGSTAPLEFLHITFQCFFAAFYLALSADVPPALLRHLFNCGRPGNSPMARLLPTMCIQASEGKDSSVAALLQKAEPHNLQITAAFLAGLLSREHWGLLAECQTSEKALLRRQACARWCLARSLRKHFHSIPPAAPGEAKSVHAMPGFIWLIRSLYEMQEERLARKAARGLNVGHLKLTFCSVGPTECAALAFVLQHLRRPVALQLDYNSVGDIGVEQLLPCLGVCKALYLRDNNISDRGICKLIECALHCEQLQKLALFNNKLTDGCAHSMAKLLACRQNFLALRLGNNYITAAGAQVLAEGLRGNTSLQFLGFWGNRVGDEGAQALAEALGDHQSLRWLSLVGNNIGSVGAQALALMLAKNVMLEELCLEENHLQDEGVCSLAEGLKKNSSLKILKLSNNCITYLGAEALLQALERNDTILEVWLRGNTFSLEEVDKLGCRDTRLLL

With `Nc1nc2ccccc2n1S(=O)(=O)c1ccccc1` [Compound 4], the IC50 in experiment [1] (read-out: TNF-α IC50(μM)) was more than 20 µM.
As to `Nc1nc2ccccc2n1S(=O)(=O)c1ccc([N+](=O)[O-])cc1` [Compound 5], in experiment [1] (read-out: TNF-α IC50(μM)), the half-maximal inhibitory concentration (IC50) was more than 20 µM.
For `Cc1ccc(S(=O)(=O)n2cnc3ccccc32)cc1` [Compound 6], the 50% inhibitory concentration (IC50) in experiment [1] (read-out: TNF-α IC50(μM)) was more than 20 µM.
For `Nc1nc2ccccc2n1S(=O)(=O)c1ccc(OC(F)(F)F)cc1` [Compound 11], the IC50 in experiment [1] (setting [4]) and in experiment [2] was more than 20 µM throughout.
For the compound `CC(C)c1ccc(S(=O)(=O)n2c(N)nc3ccccc32)cc1` [Compound 12], the IC50 in experiment [1] (setting [4]) and in experiment [2] was more than 20 µM in each case.
On to `Nc1nc2ccccc2n1S(=O)(=O)c1ccc(F)cc1` [Compound 13], for which the half-inhibitory concentration (IC50) in experiment [1] (setting [4]) and in experiment [2] was more than 20 µM each time.
Turning to `Nc1nc2ccccc2n1S(=O)(=O)c1ccc(Cl)c(Cl)c1` [Compound 14], the IC50 in experiment [1] (setting [4]) and in experiment [2] was more than 20 µM in each case.
Take `Nc1nc2ccccc2n1S(=O)(=O)c1cccs1` [Compound 16]: the half-maximal inhibitory concentration (IC50) was 6.6 µM in experiment [1] (setting [4]), 11 µM in experiment [3] and more than 25 µM in experiment [2].
As for `C=CCNC1=C2C[C@@H](C)C[C@H](OC)[C@H](O)[C@@H](C)/C=C(\C)[C@H](OC(N)=O)[C@@H](OC)C=C/C=C(\C)C(=O)NC(=CC1=O)C2=O` [Compound 17-AGG, reference compound], the “Effect on NOD-driven NF-κB reporter gene activity” value in experiment [3] is recorded as “suppress”.
As for `Nc1nc2ccccc2n1S(=O)(=O)c1ccc2c(c1)CCC2` [Compound 17], the values for the IC50 in experiment [1] (setting [4]), in experiment [3] and in experiment [2] were more than 25 µM, 0.8 µM and 0.6 µM, respectively.
Take `Cc1ccc(S(=O)(=O)n2c(N)nc3cc(C)ccc32)cc1` [Compound 18]: the figures for the half-maximal inhibitory concentration (IC50) in experiment [1] (setting [4]), in experiment [3] and in experiment [2] were more than 25 µM, 9.3 µM and 15 µM, respectively.
As to `Cc1ccc(S(=O)(=O)n2c(N)nc3cc(C(F)(F)F)ccc32)cc1` [Compound 20], the results for the IC50 in experiment [1] (setting [4]), in experiment [3] and in experiment [2] were 2.3 µM, 1.6 µM and 4.7 µM, respectively.
Consider `Cc1ccc(S(=O)(=O)n2c(N)nc3ccc(C(F)(F)F)cc32)cc1` [Compound 21], for which the figures for the IC50 in experiment [1] (setting [4]), in experiment [3] and in experiment [2] were 12.3 µM, 3.9 µM and 10 µM, respectively.
Consider `Cc1ccc(S(=O)(=O)n2c(N)nc3cc(F)ccc32)cc1` [Compound 22], for which the results for the IC50 in experiment [1] (setting [4]), in experiment [3] and in experiment [2] were more than 25 µM, 1.8 µM and more than 25 µM, respectively.
For the compound `Cc1ccc(S(=O)(=O)n2c(N)nc3ccc(F)cc32)cc1` [Compound 23], the figures for the 50% inhibitory concentration (IC50) in experiment [1] (setting [4]), in experiment [3] and in experiment [2] were more than 25 µM, 6.2 µM and more than 25 µM, respectively.
`COc1ccc2c(c1)nc(N)n2S(=O)(=O)c1ccc(C)cc1` [Compound 24]: the IC50 in experiment [1] (setting [4]) is more than 25 µM; in experiment [3], 1.9 µM; in experiment [2], 3.1 µM.
Consider `CCOC(=O)c1ccc2nc(N)n(S(=O)(=O)c3ccc(C)cc3)c2c1` [Compound 25], for which the half-maximal inhibitory concentration (IC50) in experiment [1] (setting [4]) was more than 25 µM; in experiment [3], 3 µM; in experiment [2], 7.6 µM.
As to `Cc1ccc(S(=O)(=O)n2c(N)nc3c(N)cccc32)cc1` [Compound 26], the IC50 in experiment [1] (setting [4]) was more than 25 µM; in experiment [3], 17.5 µM; in experiment [2], 12.8 µM.
With `Cc1ccc(S(=O)(=O)n2c(CNC=O)nc3ccccc32)cc1` [Compound 27], the IC50 in experiment [1] (setting [4]) is 8.4 µM; in experiment [3], 10.9 µM; in experiment [2], 15.6 µM.
For the compound `Cc1ccc(S(=O)(=O)n2c(NCCCO)nc3ccccc32)cc1` [Compound 28], the IC50 in experiment [1] (setting [4]) was more than 25 µM; in experiment [3], 12.1 µM; in experiment [2] it was more than 25 µM.
As to `Cc1cccc(S(=O)(=O)n2c(N)nc3ccccc32)c1` [Compound 29], the IC50 in experiment [1] (setting [4]) was more than 100 µM; in experiment [3] it was 3.8 µM.
`Nc1nc2ccccc2n1S(=O)(=O)c1cccc(Br)c1` [Compound 31]: the half-maximal inhibitory concentration (IC50) in experiment [1] (read-out: TNF-α IC50(μM)) is more than 100 µM; in experiment [3], 3.5 µM.
Take `Nc1nc2ccccc2n1S(=O)(=O)c1cccc(C(F)(F)F)c1` [Compound 32]: the values for the IC50 in experiment [1] (setting [4]) and in experiment [3] were more than 100 µM and 12.4 µM, respectively.
Take `Nc1nc2ccccc2n1S(=O)(=O)c1cccc(OC(F)(F)F)c1` [Compound 33]: the IC50 in experiment [1] (setting [4]) was more than 100 µM; in experiment [3], more than 25 µM.
Turning to `CCCc1cccc(S(=O)(=O)n2c(N)nc3ccccc32)c1` [Compound 34], the IC50 in experiment [1] (setting [4]) was more than 100 µM; in experiment [3] it was 1.3 µM.
As for `CC(C)(C)c1cccc(S(=O)(=O)n2c(N)nc3ccccc32)c1` [Compound 35], the results for the half-maximal inhibitory concentration (IC50) in experiment [1] (setting [4]) and in experiment [3] were 15.6 µM and 3.3 µM, respectively.
Turning to `COc1cccc(S(=O)(=O)n2c(N)nc3ccccc32)c1` [Compound 36], the half-inhibitory concentration (IC50) in experiment [1] (setting [4]) was more than 100 µM; in experiment [3] it was 14.5 µM.
The matching figures for `Nc1nc2ccccc2n1S(=O)(=O)c1cc(Cl)c(Cl)s1` [Compound 37]: 18.4 µM and 2.2 µM.
In the case of `Nc1nc2ccccc2n1S(=O)(=O)c1ccc(-c2ccccc2)cc1` [Compound 39], the 50% inhibitory concentration (IC50) in experiment [1] (read-out: TNF-α IC50(μM)) was 4.2 µM; in experiment [3], 1.5 µM.
In the case of `COc1ccc(-c2ccc(S(=O)(=O)n3c(N)nc4ccccc43)cc2)cc1` [Compound 40], the IC50 in experiment [1] (setting [4]) came to 5.2 µM.
Regarding `COC1=C2C[C@@H](C)C[C@H](OC)[C@H](O)[C@@H](C)/C=C(\C)[C@H](OC(N)=O)[C@@H](OC)/C=C\C=C(/C)C(=O)NC(=CC1=O)C2=O` [geldanomycin, reference compound], in experiment [3], the “Effect on NOD-driven NF-κB reporter gene activity” value was “suppress”.
Turning to `C[n+]1cc2c3c(ccc2c2ccc4cc5c(cc4c21)OCO5)OCO3` [sanguinarine, reference compound], the inhibition at 4 µM in experiment [3] (HEK-293T, read-out: Luciferase inhibition, hit cut-off) was not below 50%.
